These results are taken from US20150104415A1, “Treatments of Hepatitis C virus infection” (DEBIOPHARM INTERNATIONAL SA, priority 2011, published 2015).

This experiment deals with HCV GT1. Description: Randomized, double-blind, placebo-controlled phase II study of DEB025 plus SOC (peg-IFNα2a plus RBV); virologic response by HCV RNA. The format is in vivo, patients. As for the experimental part: This is an international, multicentre, randomized, double-blind, placebo-controlled, 4-arm, parallel-group phase II study comparing therapy with three doses of DEB025 (600 mg QD, 800 mg QD and 400 mg BID) plus SOC (peg-IFNα2a once weekly plus RBV BID) versus triple therapy with placebo matching DEB025 plus SOC in chronic HCV GT1 patients who were non-responders to prior SOC treatment, or who have relapsed after SOC treatment.
Approximately 344 patients will be randomized into one of 4 treatment arms (A, B, C (C1/C2) and D) in a 1:1:1:1 ratio. C1 and C2 patients will be randomized in a 1:1 ratio within arm C.
The randomization will be stratified by response status to previous treatment (non-responders/relapsers), BMI (<25 kg/m2 or ≧25 kg/m2) and IL28B polymorphism (CC or CT/TT) at screening.
The ratio non-responders and relapsers should be kept at 50% (172 patients) of the study population. An international, multicentre, randomized, double-blind, placebo-controlled, 4-arm, parallel-group phase II study comparing triple therapy with three doses of alisporivir (400 mg, 600 mg or 800 mg)+standard of care (SOC) versus triple therapy with placebo matching alisporivir plus SOC in […] chronic HCV GT1 patients who were non-responders to prior SOC treatment, or relapsers after SOC treatment is provided.
Patients are randomized into one of 4 treatment arms as described below in a 1:1:1:1 ratio. The randomization will be stratified by response status to previous treatment (non-responders/relapsers), BMI (<25 kg/m2 or ≧25 kg/m2) and IL28B polymorphism (CC or CT/TT) at screening. The ratio non-responders and relapsers should be kept at 50% (172 patients) of the study population.
• Alisporivir/Placebo 3 capsules of 200 mg (600 mg) alisporivir 2×/day (BID) orally for 1 week (loading dose) followed by 3 capsules of 200 mg (600 mg) alisporivir once per day (QD) plus 1 capsule of placebo QD for 47 weeks. Only in week 17 (dummy loading) patients receive 3 capsules of 200 mg (600 mg) alisporivir in the morning and 3 capsules of placebo in the evening. • Peg-IFNα2a 180 μg subcutaneously (s.c.) once weekly for 48 weeks • Ribavirin 1000 mg/day (<75 kg) or 1200 mg/day (≧75 kg) orally in two divided doses for 48 weeks
• alisporivir/Placebo 3 capsules of 200 mg (600 mg) alisporivir 2×/day orally for 1 week (loading dose) followed by 4 capsules alisporivir (800 mg) QD for 47 weeks. Only in week 17 (dummy loading) patients receive 3 capsules of 200 mg (600 mg) alisporivir in the morning and 1 capsule of 200 mg alisporivir plus 2 capsules of placebo in the evening. • Peg-IFNα2a 180 μg subcutaneously (s.c.) once weekly for 48 weeks • Ribavirin 1000 mg/day (<75 kg) or 1200 mg/day (≧75 kg) orally in two divided doses for 48 weeks Treatment C1 (will change to active treatment if cEVR not reached=arm C1A) • Placebo 3 capsules of placebo BID orally for 1 week (loading dose) followed by 4 capsules placebo QD for 47 weeks. […]
• Placebo alisporivir 1 capsule of placebo QD (in the morning) orally for 48 weeks 2 capsules of 200 mg (400 mg) alisporivir 2×/day orally for 48 weeks
• 180 μg s.c. once weekly for 48 weeks • Ribavirin 1000 mg/day (<75 kg) or 1200 mg/day (≧75 kg) orally in two divided doses for 48 weeks Treatment C2 (will change to active treatment if cEVR not reached=arm C2A) • DEB025 placebo 3 capsules of placebo orally in the morning and 2 capsules of placebo in the evening for 48 weeks. • Peg-IFNα2a 180 μg s.c. once weekly for 48 weeks • Ribavirin 1000 mg/day (<75 kg) or 1200 mg/day (≧75 kg) orally in two divided doses for 48 weeks
• Placebo 3 capsules of placebo orally as morning dose and 2 capsules of placebo as evening dose for 16 weeks. […]

Where [1] appears, read: Arm A, DEB 600 QD plus peg-IFNα2a/RBV, N = 81.
Where [2] appears, read: Arm B, DEB 800 QD plus peg-IFNα2a/RBV, N = 84.
The mark [3] stands for this setting: Arm D, DEB 400 BID plus peg-IFNα2a/RBV, N = 78.
Where [4] appears, read: DEB 400 BID arm plus SOC, Week 12.

Structures are written as SMILES.

As to `C/C=C/C[C@@H](C)[C@@H](O)[C@H]1C(=O)N[C@@H](CC)C(=O)N(C)[C@H](C)C(=O)N(CC)[C@@H](C(C)C)C(=O)N[C@@H](C(C)C)C(=O)N(C)[C@@H](CC(C)C)C(=O)N[C@@H](C)C(=O)N[C@H](C)C(=O)N(C)[C@@H](CC(C)C)C(=O)N(C)[C@@H](CC(C)C)C(=O)N(C)[C@@H](C(C)C)C(=O)N1C` [DEB025, alisporivir], the “RVR (rapid virologic response): patients with HCV RNA < LOQ (25 IU/mL) after 4 weeks of treatment” value (from here on “RVR (rapid virologic response): patients”) (Arm A, DEB 600 QD (600 mg BID 1 week loading) plus peg-IFNα2a/RBV, N = 81, GT1 relapsers/non-responders) was 19 (23.5) n (%); the “RVR (rapid virologic response): patients” value (Arm B, DEB 800 QD (600 mg BID 1 week loading) plus peg-IFNα2a/RBV, N = 84) is on record as 18 (21.4) n (%); the “RVR (rapid virologic response): patients” value under setting [3] is on record as 29 (37.2) n (%). The “EVR: HCV RNA decrease >= 2 log10 from baseline or < LOQ (25 IU/mL) after 12 weeks” value by setting is: under setting [1], 64 (79.0) n (%); under setting [2], 72 (85.7) n (%); under setting [3], 63 (80.8) n (%). The “cEVR (complete early virologic response, primary endpoint): HCV RNA < LOQ (25 IU/mL) after 12 weeks” value was 36 (44.4) n (%) under setting [1], 48 (57.1) n (%) under setting [2] and 55 (70.5) n (%) under setting [3]. The “pEVR (partial early virologic response): HCV RNA decrease >= 2 log10 from baseline and > LOQ (25 IU/mL) after 12 weeks” value is, setting by setting: under setting [1], 28 (34.6) n (%); under setting [2], 24 (28.6) n (%); under setting [3], 8 (10.3) n (%). Besides, the “proportion achieving RVR” value (DEB 400 BID arm plus SOC, Week 4) is recorded as 37.2%. Besides, the “proportion achieving EVR” value under setting [4] came out at 80.8%. The “proportion achieving cEVR” value under setting [4] stood at 70.5%. Moreover, the “patients achieved RVR” value (Week 4, all the DEB025 treatment arms (600 QD, 800 QD, 400 BID) plus SOC) was over 20%. Further, where the note is “Week 12, all the DEB025 treatment arms (600 QD, 800 QD, 400 BID) plus SOC”, the “patients achieved EVR” value was at least 79%.
